# From article PMC5945515, “Measuring glucocorticoid receptor expression in vivo with PET” (Oncotarget, 2018)
# Target: T1, rat GR (Rattus norvegicus, UniProt P06536)
# T1 construct: endogenous in cells; host or cells: 9L
# T1 sequence (P06536 1-795): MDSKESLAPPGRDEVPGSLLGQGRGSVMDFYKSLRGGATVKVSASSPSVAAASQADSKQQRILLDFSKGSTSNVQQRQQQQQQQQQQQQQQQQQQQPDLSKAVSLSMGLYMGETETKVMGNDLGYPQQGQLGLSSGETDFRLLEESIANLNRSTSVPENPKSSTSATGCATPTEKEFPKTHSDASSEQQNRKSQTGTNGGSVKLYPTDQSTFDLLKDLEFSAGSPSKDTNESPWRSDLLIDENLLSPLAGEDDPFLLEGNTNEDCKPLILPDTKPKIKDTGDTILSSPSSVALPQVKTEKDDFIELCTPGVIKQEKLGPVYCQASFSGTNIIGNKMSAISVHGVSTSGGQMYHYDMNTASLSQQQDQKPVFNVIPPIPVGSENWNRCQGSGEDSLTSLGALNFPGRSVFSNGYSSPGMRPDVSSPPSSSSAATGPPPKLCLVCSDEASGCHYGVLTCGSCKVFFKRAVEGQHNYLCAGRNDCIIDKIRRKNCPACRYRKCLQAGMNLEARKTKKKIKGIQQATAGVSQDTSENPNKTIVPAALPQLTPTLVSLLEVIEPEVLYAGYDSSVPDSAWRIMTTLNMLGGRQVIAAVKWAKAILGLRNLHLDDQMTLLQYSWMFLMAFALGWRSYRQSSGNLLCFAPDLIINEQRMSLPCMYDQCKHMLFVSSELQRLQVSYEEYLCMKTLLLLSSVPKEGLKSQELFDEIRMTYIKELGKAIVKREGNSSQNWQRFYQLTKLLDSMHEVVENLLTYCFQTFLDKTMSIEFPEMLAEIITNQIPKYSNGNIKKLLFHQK
# Test: Competition binding assay on cells, rat GR
# Details: 9L cells, displacing 3H-dexamethasone; read-out: KD rtGR
# Experimental: The KD for subfamily 3 group C nuclear hormone receptors was determined on cells by displacing ^3H-steroidal agonists for the respective receptor. […].
# The cold ligands and ^3H-steroids were co-incubated on cells in PBS at room temperature for one hour. Following incubation, the cells were washed twice with ice cold PBS and the unbound activity was retained for analysis. The cells were lysed with 1 mL of 1 M NaOH and collected. Bound and unbound fractions were counted in a liquid scintillation counter and expressed as a percentage of the total activity added per equal relative number of cells. […]. The specific binding component was plotted against the log of the competing ligand and curve fit using a non-linear regression algorithm with PRISM software.
smiles,measurement,value
C[C@]12C=CC(=O)C=C1CCC1C2[C@@H](O)C[C@@]2(C)C1CC[C@]2(O)C(=O)CNC(=O)c1ccc(F)cc1 (stereo partly shown) [GR02],Kd,6.18 nM
